In patent publication US20140155406A1, “4-IMIDAZOPYRIDAZIN-1-YL-BENZAMIDES AND 4-IMIDAZOTRIAZIN-1-YL-BENZAMIDES BTK INHIBITORS” (priority 2011, published 2014) one finds EC50 data, which are given here for seven compounds.

Where only a bound is given, the exact number is not on record here.

Experiment [1] concerns the target T1, Btk enzyme (His-Btk) (Homo sapiens, UniProt Q06187).
T1 construct: His; purchased Millipore 14-552
Kind of experiment: Btk enzyme activity, IMAP fluorescence polarization assay. As to conditions: 60 min pre-incubation, 5 μM ATP (Km); bin bounds given in nM. The format is biochemical. The source says:
Inhibition of kinase activity can be measured using the Immobilized Metal Assay for Phosphochemicals (IMAP) assay. IMAP is a homogeneous fluorescence polarization (FP) assay based on affinity capture of phosphorylated peptide substrates. IMAP uses fluorescein-labeled peptide substrates that, upon phosphorylation by a protein kinase, bind to so-called IMAP nanoparticles, which are derivatized with trivalent metal complexes. Binding causes a change in the rate of the molecular motion of the peptide, and results in an increase in the FP value observed for the fluorescein label attached to the substrate peptide (Gaudet et al. A homogeneous fluorescence polarization assay adaptable for a range of protein serine/threonine and tyrosine kinases. J. Biomol. Screen (2003) 8, 164-175).
Btk enzyme activity is measured using the IMAP (immobilized metal ion affinity-based fluorescence polarization) assay as outlined below.
Btk enzyme (His-Btk (Millipore catalog#14-552), is diluted to 0.4 U/mL in KR buffer (10 mM Tris-HCl, 10 mM MgCl2, 0.01% Tween-20, 0.05% NaN3, 1 mM DTT, 2 mM MnCl2, pH 7.2).
Serial dilution log 10 from 2 mM to 63.2 nM of test compounds are made in 100% DMSO. The dilutions in DMSO are then diluted 50-fold in KR-buffer. Final compound concentration range in the assay from 10 μM to 0.316 nM.
5 μL/well of test compound in KR buffer (final DMSO concentration in the assay is 1%) is mixed with 5 μl/well of 0.4 U/mL Btk enzyme (final concentration in the assay is 0.1 U/mL). Test compounds and Btk enzyme are pre-incubated 60 minutes at room temperature, before adding 5 μL/well of 200 nM Fluorescin labeled substrate peptide (Blk/Lyntide substrate, e.g. #R7188/#R7233, Molecular Devices) in KR-buffer. Final peptide substrate concentration in assay is 50 nM. The kinase assay is started by adding 5 μL/well of 20 μM ATP in KR-buffer (final ATP concentration is 5 μM ATP, Km ATP in Btk IMAP assay). Following incubation for 2 h at room temperature the enzyme reaction is stopped by adding 40 μL/well IMAP Progressive Binding Solution (according to suppliers (Molecular Devices) protocol using 75% 1× buffer A and 25% 1× buffer B with 1:600 Progressive Binding Solution). After 60 min incubation at room temperature in the dark the FP signal is read. Fluorescence at 535 nm is measured using parallel and perpendicular filters to determine differences in rotation due to binding of the phosphorylated substrate peptide to the beads. Values are calculated as percentage of the difference in readout (ΔmPi) of the controls with and without ATP. EC50 values are determined by curve fitting of the experimental results using Activity Base.
In general terms: In fluorescence polarisation assays a small probe gives low polarisation when free and higher when bound to something large.

Experiment [2] deals with T2, FynT enzyme (Homo sapiens, UniProt P06241).
T2 construct: purchased Biomol SE-287
The experiment can be described thus: FynT enzyme activity, IMAP fluorescence polarization assay. The format is biochemical. As to conditions: 60 min pre-incubation, 0.2 μM ATP (Km). In outline:
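FynT (125 ng/mL final) pre-incubated 60 min at RT with compound (10 μM–0.316 nM, 1% DMSO) in pH 7.2 Tris/Mg/Mn buffer, then 100 nM fluorescein p34cdc2 peptide and 0.2 μM ATP (Km) for 2 h at RT. IMAP binding FP read at 535 nm; EC50 from curve fit versus ±ATP controls.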

T1 sequence (Q06187 whole entry): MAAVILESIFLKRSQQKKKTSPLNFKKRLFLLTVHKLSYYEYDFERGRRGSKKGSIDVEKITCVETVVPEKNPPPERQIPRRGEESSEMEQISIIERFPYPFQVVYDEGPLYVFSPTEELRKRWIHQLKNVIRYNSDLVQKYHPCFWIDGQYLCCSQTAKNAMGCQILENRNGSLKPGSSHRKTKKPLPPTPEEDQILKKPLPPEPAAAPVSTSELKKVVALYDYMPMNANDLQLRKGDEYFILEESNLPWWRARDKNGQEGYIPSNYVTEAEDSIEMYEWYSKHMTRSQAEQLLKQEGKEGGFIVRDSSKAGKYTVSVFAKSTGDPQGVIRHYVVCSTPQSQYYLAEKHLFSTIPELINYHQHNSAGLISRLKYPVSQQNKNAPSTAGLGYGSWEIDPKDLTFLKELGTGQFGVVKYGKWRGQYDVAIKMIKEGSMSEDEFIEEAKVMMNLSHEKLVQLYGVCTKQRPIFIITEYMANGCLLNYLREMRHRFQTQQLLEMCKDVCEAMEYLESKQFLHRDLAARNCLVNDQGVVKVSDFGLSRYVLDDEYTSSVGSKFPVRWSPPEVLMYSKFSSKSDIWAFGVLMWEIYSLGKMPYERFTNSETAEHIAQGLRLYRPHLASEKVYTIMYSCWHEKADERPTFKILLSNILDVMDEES
T2 sequence (P06241 1-534 isoform P06241-2): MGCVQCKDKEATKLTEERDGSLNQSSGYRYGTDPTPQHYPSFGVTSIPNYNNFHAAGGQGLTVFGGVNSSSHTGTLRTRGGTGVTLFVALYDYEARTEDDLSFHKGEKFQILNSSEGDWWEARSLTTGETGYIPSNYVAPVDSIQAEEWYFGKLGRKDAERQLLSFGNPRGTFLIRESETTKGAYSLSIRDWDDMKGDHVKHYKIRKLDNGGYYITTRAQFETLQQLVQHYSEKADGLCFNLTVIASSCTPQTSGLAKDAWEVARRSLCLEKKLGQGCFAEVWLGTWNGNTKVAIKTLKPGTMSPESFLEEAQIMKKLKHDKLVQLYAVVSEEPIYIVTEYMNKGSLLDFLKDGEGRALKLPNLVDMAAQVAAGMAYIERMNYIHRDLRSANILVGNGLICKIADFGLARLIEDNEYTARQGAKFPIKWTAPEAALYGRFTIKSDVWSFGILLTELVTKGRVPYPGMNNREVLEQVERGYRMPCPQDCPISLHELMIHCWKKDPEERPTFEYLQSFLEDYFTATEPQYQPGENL

For `C=CC(=O)N1CCCC[C@H]1c1nc(-c2ccc(C(=O)Nc3cc(C(F)(F)F)ccn3)cc2)c2c(C)nccn12` [Example 27, (S)-4-(3-(1-acryloylpiperidin-2-yl)-8-methylimidazo[1,5-a]pyrazin-1-yl)-N-(4-(trifluoromethyl)pyridin-2-yl)benzamide], the EC50 in experiment [1] is below 10 nM; in experiment [2], at least 1000 nM.

`CCCc1ccnc(NC(=O)c2ccc(-c3nc([C@H](C)NC(=O)/C=C/CN(C)C)n4ccnc(C)c34)cc2)c1` [Example 28, (S,E)-4-(3-(1-(4-(dimethylamino)but-2-enamido)ethyl)-8-methylimidazo[1,5-a]pyrazin-1-yl)-N-(4-propylpyridin-2-yl)benzamide]: the EC50 was below 10 nM in experiment [1] and at least 1000 nM in experiment [2].

Turning to `CC#CC(=O)N1CCCC[C@H]1c1nc(-c2ccc(C(=O)Nc3cc(C(F)(F)F)ccn3)cc2)c2c(C)nccn12` [Example 29, (S)-4-(3-(1-but-2-ynoylpiperidin-2-yl)-8-methylimidazo[1,5-a]pyrazin-1-yl)-N-(4-(trifluoromethyl)pyridin-2-yl)benzamide], the results for the EC50 in experiment [1] and in experiment [2] were below 10 nM and at least 1000 nM, respectively.

As for `CCCc1ccnc(NC(=O)c2ccc(-c3nc([C@@H]4CCCCN4C(=O)/C=C/CN4CCCC4)n4ccnc(C)c34)cc2)c1` [Example 35, (S,E)-4-(8-methyl-3-(1-(4-(pyrrolidin-1-yl)but-2-enoyl)piperidin-2-yl)imidazo[1,5-a]pyrazin-1-yl)-N-(4-propylpyridin-2-yl)benzamide], the EC50 in experiment [1] is below 10 nM; in experiment [2], at least 1000 nM.

As to `CCCc1ccnc(NC(=O)c2ccc(-c3nc([C@H](C)NC(=O)/C=C/COC)n4ccnc(C)c34)cc2)c1` [Example 36, (S,E)-4-(3-(1-(4-methoxybut-2-enamido)ethyl)-8-methylimidazo[1,5-a]pyrazin-1-yl)-N-(4-propylpyridin-2-yl)benzamide], the EC50 in experiment [1] was below 10 nM; in experiment [2], at least 1000 nM.

Regarding `Cc1nccn2c([C@@H]3CCCCN3C(=O)/C=C/CN(C)C)nc(-c3ccc(C(=O)Nc4cc(C(F)(F)F)ccn4)cc3)c12` [Example 37, (S,E)-4-(3-(1-(4-(dimethylamino)but-2-enoyl)piperidin-2-yl)-8-methylimidazo[1,5-a]pyrazin-1-yl)-N-(4-(trifluoromethyl)pyridin-2-yl)benzamide], the values for the EC50 in experiment [1] and in experiment [2] were below 10 nM and at least 1000 nM, respectively.

Take `CC#CC(=O)N[C@@H](C)c1nc(-c2ccc(C(=O)Nc3cc(CCC)ccn3)cc2)c2c(C)nccn12` [Example 38, (S)-4-(3-(1-but-2-ynamidoethyl)-8-methylimidazo[1,5-a]pyrazin-1-yl)-N-(4-propylpyridin-2-yl)benzamide]: the results for the EC50 in experiment [1] and in experiment [2] were below 10 nM and at least 1000 nM, respectively.

One may read the EC50 as the concentration at which the effect is half-maximal. Lower therefore signals a more potent agent.
